A word on the IC50: it is the concentration that inhibits the measured activity by half. Higher therefore signals a need for much substance.

The text below walks through data of US10815244B2, “Isoidide derivatives and methods of making and using same” (Rutgers, the State University of New Jersey, priority 2015, dated 2020).

The target of this assay is EGFR kinase (Homo sapiens (Human), UniProt P00533). Briefly: EGFR kinase activity, luminescent ATP/ADP detection assay. The following applies: purified EGFR kinase, 10 min incubation, luminescence ADP detection. The format is biochemical. As to the method: Example RR: EGFR as a Drug Target Assay Conditions
Sequence of EGFR kinase (P00533 25-1210): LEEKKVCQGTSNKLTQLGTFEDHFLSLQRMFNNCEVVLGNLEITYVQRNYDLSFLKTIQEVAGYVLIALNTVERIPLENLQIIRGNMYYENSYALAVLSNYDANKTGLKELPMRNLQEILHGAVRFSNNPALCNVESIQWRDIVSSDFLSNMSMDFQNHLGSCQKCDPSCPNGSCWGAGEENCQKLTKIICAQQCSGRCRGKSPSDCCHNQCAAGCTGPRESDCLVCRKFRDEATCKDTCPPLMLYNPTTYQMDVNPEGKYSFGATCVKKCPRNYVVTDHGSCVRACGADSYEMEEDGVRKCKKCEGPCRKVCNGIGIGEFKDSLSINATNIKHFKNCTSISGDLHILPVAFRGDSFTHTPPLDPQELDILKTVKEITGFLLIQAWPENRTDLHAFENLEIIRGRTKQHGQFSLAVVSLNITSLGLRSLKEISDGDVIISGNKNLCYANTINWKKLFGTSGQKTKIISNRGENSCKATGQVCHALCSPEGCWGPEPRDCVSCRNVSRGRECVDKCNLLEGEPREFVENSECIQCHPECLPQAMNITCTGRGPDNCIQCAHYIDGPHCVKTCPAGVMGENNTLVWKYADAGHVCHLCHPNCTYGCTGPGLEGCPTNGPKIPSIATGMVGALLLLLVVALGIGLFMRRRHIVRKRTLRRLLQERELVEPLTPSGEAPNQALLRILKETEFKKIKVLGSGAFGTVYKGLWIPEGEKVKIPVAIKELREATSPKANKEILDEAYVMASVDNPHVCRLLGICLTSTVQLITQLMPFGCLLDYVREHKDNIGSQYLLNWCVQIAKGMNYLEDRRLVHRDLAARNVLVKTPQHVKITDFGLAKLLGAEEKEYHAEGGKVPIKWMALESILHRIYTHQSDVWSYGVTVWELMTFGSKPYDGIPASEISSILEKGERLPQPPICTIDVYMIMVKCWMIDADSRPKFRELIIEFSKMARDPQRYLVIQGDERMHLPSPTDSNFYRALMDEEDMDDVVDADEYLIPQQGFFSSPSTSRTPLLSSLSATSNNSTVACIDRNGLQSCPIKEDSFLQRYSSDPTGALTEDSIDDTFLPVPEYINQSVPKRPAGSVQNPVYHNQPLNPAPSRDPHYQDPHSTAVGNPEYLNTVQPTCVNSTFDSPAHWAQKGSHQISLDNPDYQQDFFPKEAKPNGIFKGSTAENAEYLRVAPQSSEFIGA
The IC50s of the compounds on EGFR activity were determined using the Luminescent ATP/ADP detection assay system. Briefly, the assay method measures ADP formed from EGFR kinase activity using luminescence derived from ATP-Luciferase detection system. Purified EGFR kinase was incubated with different concentrations of test compound in the kinase reaction buffer for 10 min. The reaction was stopped by depleting the unused ATP in the kinase reaction buffer using the depletion buffer for 40 min. The levels of ADP generated during the kinase reaction was detected by measuring the luminescence using the Luciferase system.
On to `CC(=O)O[C@H]1CO[C@H]2[C@@H]1OC[C@@H]2Oc1ccc(Nc2ncnc3ccsc23)cc1Cl` [Example CC, [(3S,3aR,6S,6aR)-3-[2-chloro-4-(thieno[3,2-d]pyrimidin-4-ylamino)phenoxy]-2,3,3a,5,6,6a-hexahydrofuro[3,2-b]furan-6-yl] acetate], for which the IC50 is over 500 nM.

The compound `COc1cc2ncnc(Nc3ccc(O[C@H]4CO[C@H]5[C@@H]4OC[C@@H]5OC(=O)c4ccccc4)c(Cl)c3)c2cc1OC` [Example DD, [(3S,3aR,6S,6aR)-3-[2-chloro-4-[(6,7-dimethoxyquinazolin-4-yl)amino]phenoxy]-2,3,3a,5,6,6a-hexahydrofuro[3,2-b]furan-6-yl] benzoate] returned a half-maximal inhibitory concentration (IC50) of over 100 nM.

`O=C(O[C@H]1CO[C@H]2[C@@H]1OC[C@@H]2Oc1ccc(Nc2ncnc3ccsc23)cc1Cl)c1ccccc1` [Example EE, [(3S,3aR,6S,6aR)-3-[2-chloro-4-(thieno[3,2-d]pyrimidin-4-ylamino)phenoxy]-2,3,3a,5,6,6a-hexahydrofuro[3,2-b]furan-6-yl] benzoate] gave an IC50 of over 500 nM.

`CC(=O)O[C@H]1CO[C@H]2[C@@H]1OC[C@@H]2Oc1ccnc(NC2CCN(S(C)(=O)=O)CC2)n1` [Example FF, [(3S,3aR,6S,6aR)-3-[2-[(1-methylsulfonyl-4-piperidyl)amino]pyrimidin-4-yl]oxy-2,3,3a,5,6,6a-hexahydrofuro[3,2-b]furan-6-yl] acetate]: the “EGFR IC50” value is “Inactive”.

Regarding `CC(=O)O[C@H]1CO[C@H]2[C@@H]1OC[C@@H]2Oc1ccnc(NC2CCN(S(=O)(=O)c3ccc(C)cc3)CC2)n1` [Example GG, [(3S,3aR,6S,6aR)-3-[2-[(1-tolylsulfonyl-4-piperidyl)amino]pyrimidin-4-yl]oxy-2,3,3a,5,6,6a-hexahydrofuro[3,2-b]furan-6-yl] acetate], the “EGFR IC50” value is recorded as “Inactive”.

Regarding `CC(=O)O[C@H]1CO[C@H]2[C@@H]1OC[C@@H]2Oc1ccnc(NC2CCN(C(=O)C(C)(C)C)CC2)n1` [Example HH, [(3S,3aR,6S,6aR)-3-[2-[[1-(2,2-dimethylpropanoyl)-4-piperidyl]amino]pyrimidin-4-yl]oxy-2,3,3a,5,6,6a-hexahydrofuro[3,2-b]furan-6-yl] acetate], the “EGFR IC50” value was “Inactive”.

For the compound `CC(=O)O[C@H]1CO[C@H]2[C@@H]1OC[C@@H]2Oc1ccnc(NCc2ccc(F)cc2)n1` [Example II, [(3S,3aR,6S,6aR)-3-[2-[(4-fluorophenyl)methylamino]pyrimidin-4-yl]oxy-2,3,3a,5,6,6a-hexahydrofuro[3,2-b]furan-6-yl] acetate], the “EGFR IC50” value was “Inactive”.

On to `CS(=O)(=O)N1CCC(Nc2nccc(O[C@H]3CO[C@H]4[C@@H]3OC[C@@H]4OC(=O)c3ccccc3)n2)CC1` [Example JJ, [(3S,3aR,6S,6aR)-3-[2-[(1-methylsulfonyl-4-piperidyl)amino]pyrimidin-4-yl]oxy-2,3,3a,5,6,6a-hexahydrofuro[3,2-b]furan-6-yl] benzoate], for which the “EGFR IC50” value is given as “Inactive”.

For `CSc1ncc(Br)c(C(=O)O[C@H]2CO[C@H]3[C@@H]2OC[C@@H]3O)n1` [Example KK, [(3S,3aR,6S,6aR)-3-hydroxy-2,3,3a,5,6,6a-hexahydrofuro[3,2-b]furan-6-yl] 5-bromo-2-methylsulfanyl-pyrimidine-4-carboxylate], the “EGFR IC50” value is on record as “Inactive”.

With `COc1cc2ncnc(Nc3ccc(O[C@H]4CO[C@H]5[C@@H]4OC[C@@H]5O)c(Cl)c3)c2cc1OC` [Example T, (3S,3aR,6S,6aR)-6-[2-chloro-4-[(6,7-dimethoxyquinazolin-4-yl)amino]phenoxy]-2,3,3a,5,6,6a-hexahydrofuro[3,2-b]furan-3-ol], the IC50 is over 100 nM.

In the case of `O[C@H]1CO[C@H]2[C@@H]1OC[C@@H]2Oc1ccc(Nc2ncnc3ccsc23)cc1Cl` [Example U, (3S,3aR,6S,6aR)-6-[2-chloro-4-(thieno[3,2-d]pyrimidin-4-ylamino)phenoxy]-2,3,3a,5,6,6a-hexahydrofuro[3,2-b]furan-3-ol], the concentration for half-maximal inhibition (IC50) was over 100 nM.

Consider `CSc1nccc(Nc2ccc(O[C@H]3CO[C@H]4[C@@H]3OC[C@@H]4O)c(Cl)c2)n1` [Example V, (3S,3aR,6S,6aR)-6-[2-chloro-4-[(2-methylsulfanylpyrimidin-4-yl)amino]phenoxy]-2,3,3a,5,6,6a-hexahydrofuro[3,2-b]furan-3-ol], for which the “EGFR IC50” value is “Inactive”.

`O[C@H]1CO[C@H]2[C@@H]1OC[C@@H]2Oc1ccc(Nc2ccnc(Nc3ccc(O[C@H]4CO[C@H]5[C@@H]4OC[C@@H]5O)c(Cl)c3)n2)cc1Cl` [Example W, (3S,3aR,6S,6aR)-6-[4-[[2-[4-[[(3S,3aR,6S,6aR)-3-hydroxy-2,3,3a,5,6,6a-hexahydrofuro[3,2-b]furan-6-yl]oxy]-3-chloro-anilino]pyrimidin-4-yl]amino]-2-chloro-phenoxy]-2,3,3a,5,6,6a-hexahydrofuro[3,2-b]furan-3-ol]: the “EGFR IC50” value is recorded as “Inactive”.

`COc1cc2ncnc(Nc3ccc(O[C@H]4CO[C@H]5[C@@H]4OC[C@@H]5OC(C)=O)cc3)c2cc1OC` [Example X, [(3S,3aR,6S,6aR)-3-[4-[(6,7-dimethoxyquinazolin-4-yl)amino]phenoxy]-2,3,3a,5,6,6a-hexahydrofuro[3,2-b]furan-6-yl] acetate]: the IC50 was over 500 nM.

As to `CC(=O)O[C@H]1CO[C@H]2[C@@H]1OC[C@@H]2Oc1ccc(Nc2ncnc3ccsc23)cc1` [Example Y, [(3S,3aR,6S,6aR)-3-[4-(thieno[3,2-d]pyrimidin-4-ylamino)phenoxy]-2,3,3a,5,6,6a-hexahydrofuro[3,2-b]furan-6-yl] acetate], the IC50 is over 1000 nM.

`COc1cc2ncnc(Nc3ccc(O[C@H]4CO[C@H]5[C@@H]4OC[C@@H]5OCc4ccccc4)cc3)c2cc1OC` [Example Z, N-[4-[[(3S,3aR,6S,6aR)-3-benzyloxy-2,3,3a,5,6,6a-hexahydrofuro[3,2-b]furan-6-yl]oxy]phenyl]-6,7-dimethoxy-quinazolin-4-amine] gave an IC50 of over 100 nM.
